{
  "source": "patent US20100284925A1",
  "about": "“Small Molecule Intervention for Obesity” (priority 2006, published 2010)",
  "key": {"[1]": {"test_system": "phospholipid transfer protein (PLTP) gene expression", "assay": "PLTP gene expression in HepG2 cells by DNA microarray and Northern blot", "assay_type": "cell-based, human", "procedure": "The patent or application file contains at least one drawing executed in color. Copies of this patent with color drawings will be provided by the United States Patent and Trademark Office upon request and payment of necessary fee. FIG. 1. Pharmacological response of HepG2 cells to topotecan by DNA Microarray. HepG2 cells were treated with 500 nM for various times (A) or with various concentrations of topotecan (B) for 24 hrs. Dendrogram of the expression changes of the phospholipid transfer protein (PLTP) is shown. (C) Induction of PLTP expression by topotecan was confirmed independently by Northern blot analysis.\nThe mechanisms of resistance to topoisomerase (Top) 1 inhibitors by expression genomics were studied by conducting time-course and dose-response experiments by DNA microarray to investigate the pharmacological response of the human hepatocellular blastoma HepG2 cells to topotecan, which were either treated with 500 nM of topotecan (a cytotoxic anticancer agent) for various times (0, 1, 3, 5, 10, 15, and 24 hrs), or with various doses of topotecan (0, 10, 50, 100, 300, 500, and 1000 nM) for 24 hrs.\nActivation of PLTP expression by topotecan was temporally regulated and dose dependent, with a late onset, peaking at 24 hrs with an approximately 20-fold induction."}, "[2]": {"test_system": "PLTP promoter", "assay": "PLTP-promoter luciferase reporter in HepG2 and transgenic HepG2/PLTPpLuc cells", "assay_type": "cell-based, human", "conditions": "for transactivation of PLTP promoter: luciferase reporter, HepG2 or HepG2/PLTPpLuc cells; for effect on transactivation of PLTP promoter by prieurianin: co-treatment with prieurianin, 200 nM staurosporine or 200 nM TSA", "from_the_text": "FIG. 2A. A 1.5 Kb PLTP promoter fused to a luciferase reporter was transactivated by topotecan dose-dependently.\nFIG. 2B. Activation of PLTP promoter by topotecan in HepG2 transgenic cells containing the PLTP-promoter luciferase reporter gene fused to the neomycin selectable marker cassette and stably transfected into HepG2 cells to generate the transgenic line (Top panel). Dose-dependent induction of PLTP promoter by topotecan (Bottom panel). Results are the means S.E. of three experiments after normalization with Renilla luciferase.\nFIG. 3A. Dose-dependent transactivation of the PLTP promoter by prieurianin in the HepG2 transgenic cells. Results are the means S.E. of three experiments after normalization with Renilla luciferase.\nFIG. 3B. […] 1, Control; 2. […] Results are the means±S.E. of triplicate experiments.\nFIG. 11. Transactivation of PLTP promoter by cytotoxic and non-cytotoxic drugs. Survey of transactivation of the PLTP promoter by various cytotoxic and non-cytotoxic drugs in the HepG2 transgenic cells was conducted. Results are the means S.E. of three experiments.\nFIG. 12. Effects of trichostatin A (TSA) on transactivation of PLTP promoter by prieurianin. Dose response activation of PLTP promoter by prieurianin either in the presence or the absence of 200 nM TSA. Results are the means S.E. of three experiments.\nTo determine whether non-cytotoxic small molecules could induce PLTP expression, the inventor herein subcloned the PLTP-promoter luciferase reporter into a vector containing a neomycin (G418)-resistance selectable marker and generated a transgenic HepG2 cell line, which harbors the PLTP-promoter luciferase reporter, by stable gene transfection and selection with G418.\nThe transgenic cells were then screened with a library of small molecules derived from natural products."}, "[3]": {"test_system": "PLTP", "assay": "Serum PLTP protein by Western blot in normal C57BL/6J mice", "assay_type": "in vivo", "conditions": "normal C57BL/6J mice, 0, 2, 5 and 10 mg/kg", "procedure": "(§1) FIG. 10. Release of adiponectin and PLTP by preadipocytes and adipocytes, and in serum of normal mice. Preadipocytes (B and D) were treated with 2 μM of prieurianin and media collected after 36 hrs for Western blot analysis of either adiponectin (A and B) or PLTP (C and D). Alternatively, five days following differentiation, conditioned media of adipocyets (A and C) were collected for Western analysis. E. Serum of normal C57BL/6J mice given prieurianin or topotecan (0, 2, 5, and 10 mg/kg) was analyzed by Western blot for PLTP."}, "[4]": {"test_system": "adiponectin", "assay": "Adiponectin release into conditioned media (Western blot)", "assay_type": "cell-based", "conditions": "NIH-3T3/L1 preadipocytes, approximately 36 hrs after treatment", "procedure": "as §1\nAdipose tissue contains various types of cells including preadipocytes and adipocytes. Also, preadipocytes secrete factors involved in their own differentiation. Once differentiated, the mature adipocytes acquire the ability to communicate distally with other organs including brain, liver, and skeletal muscle and locally with other cells such as preadipocytes, endothelial cells and monocytes/macrophages by secreting leptin and adiponectin. In addition, anti-adipogenic cytokines prevent the release of adiponectin by preadipocytes. Thus, the production of adiponectin and PLTP by preadipocytes and adipocytes was assessed."}, "[5]": {"test_system": "PLTP", "assay": "PLTP release into conditioned media (Western blot)", "assay_type": "cell-based", "procedure": "as §1\nThe expression and secretion of PLTP by preadipocytes and adipocytes was also assessed. Thus, preadipocytes produced and released both the low and the high molecular weight forms of PLTP, while adipocytes secreted only the low molecular weight form (see FIGS. 10C and 10D) into the conditioned media."}, "[6]": {"test_system": "NIH-3T3/L1 preadipocytes", "assay": "Differentiation of NIH-3T3/L1 preadipocytes into adipocytes (oil red O or Nile Red staining)", "assay_type": "cell-based", "procedure": "FIG. 7. […] NIH-3T3/L1 cells were induced into differentiation and simultaneously treated with 2 μM of prieurianin. Differentiated cells were stained with oil red O—FIG. 7A, undifferentiated control.\nHistogram represents A510 nm absorbance of oil red O stain isopropanol extracts from cells. Results are means±S.E. of triplicate experiments.\n(§2) FIG. 19. Effects of bufalin on preadipocyte differentiation, and dedifferentiation/delipidation in adipo-cytes. NIH-3T3/L1 cells were induced into differentiation and simultaneously treated with either 1 μM of bufalin or 2 μM of prieurianin. Differentiated cells were stained with Nile Red. Alternatively, preadipocytes were induced into differentiation and five days following differentiation, cells were treated with either 1 μM of bufalin or 2 μM of prieurianin for an additional five days and followed by staining with Nile Red. Stained cells were evaluated by fluorescence microscopy.\nTo determine the effects of prieurianin on the differentiation of preadipocytes to adipocytes, the NIH-3T3/L1 preadipocytes were treated with or without the drug at the same time when induction of differentiation was initiated."}, "[7]": {"test_system": "differentiated NIH-3T3/L1 adipocytes", "assay": "Loss of lipid-positive differentiated adipocytes (oil red O, A510; Nile Red)", "assay_type": "cell-based", "conditions": "1 μM bufalin, Nile Red", "procedure": "FIG. 8. Prieurianin induced loss of differentiated adipocytes. NIH-3T3/L1 preadipocytes were induced into differentiation. Five days following differentiation, cells were treated with various concentrations (0.5, 1, and 2 μM) of prieurianin for an additional five days and followed by staining with oil red O. Micrographs were obtained from representatives of triplicate experiments. Isopropanol extracts of positively stained cells were quantified spectrophotometrically at 510 nm as shown in histogram on the right. Results are means±S.E. of triplicate experiments.\nas §2\nTo assess whether prieurianin has any effect on the differentiated adipocytes, the preadipocytes were allowed to differentiate into adipocytes and then were further cultured for about five days before treating the adipocytes with prieurianin for an additional five to six days, followed by oil red O staining for the presence of lipid accumulating adipocytes."}, "[8]": {"test_system": "NFκB", "assay": "NFκB-response element luciferase reporter in L1 preadipocytes", "assay_type": "cell-based", "conditions": "prieurianin 2 μM"}, "[9]": {"test_system": "C/EBPα", "assay": "C/EBPα response element luciferase reporter in L1 preadipocytes", "assay_type": "cell-based", "conditions": "prieurianin 2 μM", "procedure": "(§3) FIG. 18. Effects of prieurianin on C/EBPα and β and PPARγ mediated transcription in adipogenesis. Response elements corresponding to C/EBPα and β and PPARγ are cloned into the pGL3 basic luciferase reporter plasmid. L1 preadipocytes were contransfected with the reporter plasmid either in the presence or the absence of the corresponding transcription factors cloned into expression vector, followed by treatment with 2 μM of prieurianin. Cells were harvested for luciferase assay 15-24 hrs later. Results are means±S.E. of triplicate experiments."}, "[10]": {"test_system": "C/EBPβ", "assay": "C/EBPβ response element luciferase reporter in L1 preadipocytes", "assay_type": "cell-based", "conditions": "prieurianin 2 μM", "procedure": "as §3"}, "[11]": {"test_system": "PPARγ", "assay": "PPARγ response element luciferase reporter in L1 preadipocytes", "assay_type": "cell-based", "conditions": "prieurianin 2 μM", "procedure": "as §3"}},
  "note": "Entries after “also recorded” stand apart in the source; their conditions may differ.",
  "data": [
    {"smiles": "CC[C@@]1(O)C(=O)OCc2c1cc1n(c2=O)Cc2cc3c(CN(C)C)c(O)ccc3nc2-1", "note": "[topotecan, reference compound]", "values": [
      {"measurement": "PLTP expression by Northern blot analysis", "setting": "[1]; HepG2 cells", "result": "induced by topotecan dose-dependently"},
      {"measurement": "induction of PLTP expression", "setting": "[1]; HepG2 cells, DNA microarray, peaking at 24 hrs", "result": "approximately 20 fold"},
      {"measurement": "onset of PLTP induction following treatment", "setting": "[1]; time-course microarray analysis", "result": "12 to 15", "unit": "h"},
      {"measurement": "transactivation of PLTP promoter", "setting": "[2]", "result": "transactivated by topotecan dose dependently"},
      {"measurement": "serum PLTP protein levels", "setting": "[3]", "result": "a rise in the serum PLTP protein levels"},
      {"measurement": "adiponectin release by preadipocytes", "setting": "[4]", "result": "significantly inhibited the production of adiponectin"},
      {"measurement": "release of PLTP by adipocytes", "setting": "[5]; adipocytes", "result": "induced an increase in the release of only the low molecular weight form of PLTP"},
      {"measurement": "release of PLTP by preadipocytes", "setting": "[5]; preadipocytes", "result": "release of the low but not the high molecular form of PLTP was reduced"}
    ]},
    {"smiles": "CC(/C=C/C(=O)NO)=C\\[C@@H](C)C(=O)c1ccc(N(C)C)cc1", "note": "[trichostatin A]", "values": [
      {"measurement": "effect on transactivation of PLTP promoter by prieurianin", "setting": "[2]", "result": "though modest, potentiated the transactivation of PLTP promoter activity by prieurianin"}
    ]},
    {"smiles": "C[C@]12CC[C@H](O)C[C@H]1CC[C@@H]1[C@@H]2CC[C@]2(C)[C@@H](c3ccc(=O)oc3)CC[C@]12O", "note": "[bufalin, reference compound]", "values": [
      {"measurement": "transactivation of PLTP promoter", "setting": "[2]", "result": "stimulates the PLTP promoter like prieurianin"},
      {"measurement": "differentiation of preadipocytes", "setting": "[6]; 1 μM bufalin, Nile Red", "result": "did not, however, inhibit the differentiation of preadipocytes"},
      {"measurement": "de-differentiation or delipidation in adipocytes", "setting": "[7]", "result": "neither causes de-differentiation or delipidation in adipocytes"},
      {"measurement": "NFκB-response element mediated transcription", "setting": "[8]", "result": "nor did it modulate the transcriptional activity"},
      {"measurement": "transactivation potential of C/EBPα", "setting": "[9]", "result": "nor did it modulate the transcriptional activity"},
      {"measurement": "transactivation potential of C/EBPβ", "setting": "[10]", "result": "nor did it modulate the transcriptional activity"},
      {"measurement": "transactivation potential of PPARγ", "setting": "[11]", "result": "nor did it modulate the transcriptional activity"}
    ]},
    {"smiles": "CN[C@@H]1C[C@H]2O[C@@](C)([C@@H]1OC)n1c3ccccc3c3c4c(c5c6ccccc6n2c5c31)C(=O)NC4", "note": "[staurosporine]", "values": [
      {"measurement": "effect on TPA activation of PLTP promoter", "setting": "[2]; co-treatment with TPA", "result": "abolished"},
      {"measurement": "effect on transactivation of PLTP promoter by prieurianin", "setting": "[2]", "result": "strongly inhibited PLTP transactivation by prieurianin; also recorded: inhibited"},
      {"measurement": "differentiation, staurosporine alone", "setting": "[6]; data not shown", "result": "no observable effects on differentiation"}
    ]},
    {"smiles": "CCCCCCCCCCCCCC(=O)O[C@@H]1[C@@H](C)[C@@]2(O)[C@@H](C=C(CO)C[C@]3(O)C(=O)C(C)=C[C@@H]23)[C@@H]2C(C)(C)[C@]12OC(C)=O", "note": "[TPA, 12-O-tetradecanoylphorbol-13-acetate]", "values": [
      {"measurement": "transactivation of PLTP promoter", "setting": "[2]", "result": "induced PLTP promoter"}
    ]}
  ]
}
